Assay [1] addresses T1, CYP11B1 (Homo sapiens, UniProt P15538).
T1 construct: Thus, the NCI-H295R cells have Cyp11 B1 (steroid 11 p-hydroxylase); host or cells: NCI-H295R
T1 sequence (P15538 25-503): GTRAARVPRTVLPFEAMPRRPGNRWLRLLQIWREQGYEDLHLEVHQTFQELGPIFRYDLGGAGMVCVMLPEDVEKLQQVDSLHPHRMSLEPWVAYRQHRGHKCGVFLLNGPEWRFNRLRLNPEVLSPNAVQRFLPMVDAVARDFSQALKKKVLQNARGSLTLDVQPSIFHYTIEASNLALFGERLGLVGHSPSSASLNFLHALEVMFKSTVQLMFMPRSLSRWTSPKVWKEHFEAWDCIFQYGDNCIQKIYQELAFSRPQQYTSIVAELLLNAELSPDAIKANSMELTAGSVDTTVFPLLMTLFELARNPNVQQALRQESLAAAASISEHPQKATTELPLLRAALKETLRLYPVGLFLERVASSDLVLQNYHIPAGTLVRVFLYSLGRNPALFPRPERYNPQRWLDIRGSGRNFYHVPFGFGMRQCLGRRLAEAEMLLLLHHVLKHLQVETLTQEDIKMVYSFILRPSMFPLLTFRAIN
Kind of assay: in vitro CYP11B1 inhibition, steroid release from NCI-H295R cells. Type of assay: cell-based. Particulars: for inhibition at 0.1 µM: NCI-H295R, read-out: 11B1 % I @ 100 nM. From the text:
The in vitro inhibitory activities for CYP11B1 can be determined by the following assay.
The cell line NCI-H295R was originally isolated from an adrenocortical carcinoma and has been characterized in the literature through the stimulable secretion of steroid hormones and the presence of the enzymes essential for steroidogenesis. Thus, the NCI-H295R cells have Cyp11 B1 (steroid 11 p-hydroxylase). The cells show the physiological property of zonally undifferentiated human foetal adrenocortical cells which, however, have the capacity to produce the steroid hormones which are formed in the three, phenotypically distinguishable zones in the adult adrenal cortex.
The NCI-H295R cells (American Type Culture Collection, ATCC, Rockville, Md., USA) are grown in Dulbeoco's Modified Eagle'Ham F-12 Medium (DME/F12), which has been I supplemented with Ulroser SF Serum (Soprachem, Cergy-Saint-Christophe, France), insulin, transferrin, selenite (I-T-S, Becton Dickinson Biosciences, Franklin lakes, NJ, USA) and antibiotics in 75 cm^2 cell culture vessels at 37° C. and in a 95% air-5% carbon dioxide atmosphere. The cells are subsequently transferred for colony formation into a 24-well incubation vessel. They are cultivated there in DME/F12 medium, which is now supplemented with 0.1% bovine serum instead of Ultroser SF for 24 hours. The experiment is initiated by cultivating the cells in DME/F12 medium which is supplemented with 0.1% bovine serum albumin and test compound, in the presence or absence of cell stimulants, for 72 hours. The test substance is added in a concentration range from 0.2 nanomolar to […]. Cell stimulants which can be used are angiotensin 11 ([…] or 100 nanomolar), potassium ions (16 millimolar), forskolin (10 micromolar) or a combination of two stimulants.
The excretion of aldosterone, cortisol, corticosterone and estradiol/estrone into the culture medium can be detected and quantified by commercially available, specific monoclonal antibodies in radioimmunoassays in accordance with the manufacturer's instructions.
Inhibition of the release of certain steroids can be used as a measure of the respective enzyme inhibition by the added test compounds. The dose-dependent inhibition of enzymic activity by a compound is calculated by means of an inhibition plot which is characterized by an IC50.
The IC50 values for active test compounds are ascertained by a […] in order to construct inhibition plots without data weighting. The inhibition plot is calculated by fting a 4-parameter logistic function to the raw data points using the least squares method. The equation of the 4-parameter logistic function is calculated as follows: Y=(d−a)/((1+(x/c)b))+a I where: a=minimum data level b=gradient I c=ICED, d=maximum data level x=inhibitor concentration.

For assay [2], the target named is T2, aldosterone synthase (CYP11B2) (Homo sapiens, UniProt P19099).
T2 construct: host or cells: NCI-H295R
T2 sequence (P19099 25-503): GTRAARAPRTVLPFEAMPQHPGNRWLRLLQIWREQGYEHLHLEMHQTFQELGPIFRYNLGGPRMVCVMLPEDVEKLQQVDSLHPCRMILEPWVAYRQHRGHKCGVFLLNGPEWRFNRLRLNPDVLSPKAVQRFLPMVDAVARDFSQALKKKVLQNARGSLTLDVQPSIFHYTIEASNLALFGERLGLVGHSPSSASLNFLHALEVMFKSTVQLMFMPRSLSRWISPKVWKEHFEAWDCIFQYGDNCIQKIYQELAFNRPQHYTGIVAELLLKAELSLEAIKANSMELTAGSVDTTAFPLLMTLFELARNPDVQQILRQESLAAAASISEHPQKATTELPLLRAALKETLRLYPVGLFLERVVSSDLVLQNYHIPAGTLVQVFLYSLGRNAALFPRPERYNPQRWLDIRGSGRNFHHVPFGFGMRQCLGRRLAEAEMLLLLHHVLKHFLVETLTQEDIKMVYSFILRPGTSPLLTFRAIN
Nature of the assay: in vitro aldosterone synthase inhibition, aldosterone production in Ang II-stimulated NCI-H295R cells. Type of assay: cell-based. Particulars: read-out: AS IC50. From the text: In particular, the aldosterone synthase inhibitory activities in vitro can be determined by the following assay.
Human adrenocortical carcinoma NCI-H295R cell line is obtained from American Type Culture Collection (Manassas, Va.). Insulin/transferrin/selenium (ITS)-A supplement (100×), DMEM/F-12, antibiotic/antimycotic (100×), and fetal calf serum (FCS) are purchased from Gibco (Grand Island, N.Y.). Anti-mouse PVT scintillation proximity assay (SPA) beads and NBS 96-well plates are obtained from Amersham (Piscataway, N.J.) and Corning (Acton, Mass.), respectively. Solid black 96-well flat bottom plates were purchased from Costar (Corning, N.Y.). Aldosterone and angiotensin (Ang II) are purchased from Sigma (St. Louis, Mo.). D-[1,2,6,7-^3H(N)]aldosterone was acquired from PerkinElmer (Boston, Mass.). Nu-serum was a product of BD Biosciences (Franklin Lakes, N.J.).
For in vitro measurement of aldosterone activity, human adrenocortical carcinoma NCI-H295R cells are seeded in NBS 96-well plates at a density of 25,000 cells/well in 100 μl of a growth medium containing DMEM/F12 supplemented with 10% FCS, 2.5% Nu-serum, 1 μg ITS/ml, and 1× antibiotic/antimycotic. The medium is changed after culturing for 3 days at 37° C. under an atmosphere of 5% CO2/95% air. On the following day, cells are rinsed with 100 μl of DMEM/F12 and incubated with 100 μl of treatment medium containing 1 μM Ang II and a compound at different concentrations in quadruplicate wells at 37° C. for 24 hr. At the end of incubation, 50 μl of medium is withdrawn from each well for measurement of aldosterone production by an RIA using mouse anti-aldosterone monoclonal antibodies.
Measurement of aldosterone activity can also be performed using a 96-well plate format. Each test sample is incubated with 0.02 μCi of D-[1,2,6,7-^3H(N)]aldosterone and 0.3 μg of anti-aldosterone antibody in phosphate-buffered saline (PBS) containing 0.1% Triton X-100, 0.1% bovine serum albumin, and 12% glycerol in a total volume of 200 μl at room temperature for 1 hr. Anti-mouse PVT SPA beads (50 μl) are then added to each well and incubated overnight at room temperature prior to counting in a Microbeta plate counter. The amount of aldosterone in each sample is calculated by comparing with a standard curve generated using known quantities of the hormone.

SMILES strings stand for the structures.

Broadly, the IC50 is the concentration needed to halve the response being measured.

As to `COC(=O)c1cncn1[C@H]1c2ccccc2[C@@H](O)CC1(C)C` (relative stereo) [Compound 11, 3-(cis-4-Hydroxy-2,2-dimethyl-1,2,3,4-tetrahydro-naphthalen-r-1-yl)-3H-imidazole-4-carboxylic acid methyl ester], in assay [1], the “11B1 % I @ 100 nM” value is 100%. The IC50 in assay [2] came out at 59 nM.

For `COC(=O)c1cncn1[C@H]1c2ccccc2[C@@H](O)CC1(C)C` (relative stereo) [Compound 12, 3-(cis-4-Hydroxy-2,2-dimethyl-1,2,3,4-tetrahydro-naphthalen-r-1-yl)-3H-imidazole-4-carboxylic acid methyl ester], in assay [2], the IC50 was 14 nM.

On to `CC(C)OC(=O)c1cncn1C1CCCc2ccccc21` (single isomer, unassigned) [Compound 1, 3-(1,2,3,4-Tetrahydro-naphthalen-1-yl)-3H-imidazole-4-carboxylic acid isopropyl ester], for which the inhibition at 0.1 µM in assay [1] is 99%. In addition, in assay [2], the half-inhibitory concentration (IC50) is 44 nM.

For the molecule `CC(C)OC(=O)c1cncn1C1CCCc2ccc(C(=O)N3CCCC3)cc21` (single isomer, unassigned) [Compound 3, 3-[7-(Pyrrolidine-1-carbonyl)-1,2,3,4-tetrahydro-naphthalen-1-yl]-3H-imidazole-4-carboxylic acid isopropyl ester], in assay [1], the inhibition at 0.1 µM was 87%. Also, the IC50 in assay [2] was 215 nM.

On to `CCc1cncn1C1CCC(C)(C)c2ccccc21` (single isomer, unassigned) [Compound 8, 1-(4,4-Dimethyl-1,2,3,4-tetrahydro-naphthalen-1-yl)-5-ethyl-1H-imidazole], for which, in assay [1], the inhibition at 0.1 µM came to 100%. The half-maximal inhibitory concentration (IC50) in assay [2] was 35 nM.

Regarding `CCc1cncn1C1CCC(C)(C)c2ccccc21` (single isomer, unassigned) [Compound 9, 1-(4,4-Dimethyl-1,2,3,4-tetrahydro-naphthalen-1-yl)-5-ethyl-1H-imidazole], the “11B1 % I @ 100 nM” value in assay [1] stood at 100%. The IC50 in assay [2] was 6 nM.

Turning to `COC(=O)c1cncn1C1c2ccccc2C(=O)CC1(C)C` (single isomer, unassigned) [Compound 10, 3-(2,2-Dimethyl-4-oxo-1,2,3,4-tetrahydro-naphthalen-1-yl)-3H-imidazole-4-carboxylic acid methyl ester], in assay [1], the inhibition at 0.1 µM stood at 99%. Besides, the IC50 in assay [2] came out at 27 nM.

In the case of `CC(C)OC(=O)c1cncn1C1CCOc2ccccc21` (single isomer, unassigned) [Compound 15, 3-Chroman-4-yl-3H-imidazole-4-carboxylic acid isopropyl ester], in assay [1], the inhibition at 0.1 µM is 65%. The IC50 in assay [2] came to 103 nM.

As for `CC(C)OC(=O)c1cncn1C1CCOc2ccccc21` (single isomer, unassigned) [Compound 16, 3-Chroman-4-yl-3H-imidazole-4-carboxylic acid isopropyl ester], the IC50 in assay [2] was determined as 150 nM.

Turning to `CCC(=O)Oc1cncn1C1CCCc2ccccc21` (centres unmarked) [Compound 2, Propionic acid 3-(1,2,3,4-tetrahydro-naphthalen-1-yl)-3H-imidazol-4-yl ester], the IC50 in assay [2] was determined as 21 nM.

Turning to `CC(=O)Nc1ccc2c(c1)CCCC2n1cncc1C(=O)OC(C)C` (centres unmarked) [Compound 4, 3-(6-Acetylamino-1,2,3,4-tetrahydro-naphthalen-1-yl)-3H-imidazole-4-carboxylic acid isopropyl ester], in assay [2], the IC50 came out at 85 nM.

Consider `CC(C)OC(=O)c1cncn1C1CCCc2ccc(N(C)S(C)(=O)=O)cc21` (centres unmarked) [Compound 5, 3-(7-Methanesulfonyl-methyl-amino-1,2,3,4-tetrahydro-naphthalen-1-yl)-3H-imidazole-4-carboxylic acid isopropyl ester], for which, in assay [2], the IC50 is 352 nM.

On to `CC(C)OC(=O)c1cncn1C1CCCc2ccc(C#N)cc21` (centres unmarked) [Compound 6, 3-(7-Cyano-1,2,3,4-tetrahydro-naphthalen-1-yl)-3H-imidazole-4-carboxylic acid isopropyl ester], for which, in assay [2], the IC50 is 197 nM.

Regarding `CC(C)OC(=O)c1cncn1C1CCCc2cc(C3CC3)ccc21` (centres unmarked) [Compound 7, 3-(6-Cyclopropyl-1,2,3,4-tetrahydro-naphthalen-1-yl)-3H-imidazole-4-carboxylic acid isopropyl ester], the concentration for half-maximal inhibition (IC50) in assay [2] amounted to 268 nM.

Turning to `COC(=O)c1cncn1C1c2ccccc2C(NCc2ccccc2)CC1(C)C` (centres unmarked) [Compound 13, 3-(4-Benzylamino-2,2-dimethyl-1,2,3,4-tetrahydro-naphthalen-1yl)-3H-imidazole-4-carboxylic acid methyl ester], the inhibition at 0.1 µM in assay [1] was 60%. Moreover, the half-maximal inhibitory concentration (IC50) in assay [2] turned out to be 696 nM.

Consider `c1ccc(COc2cncn2C2CSCc3ccccc32)cc1` (centres unmarked) [Compound 18, 5-Benzyloxy-1-isothiochroman-4-yl-1H-imidazole], for which, in assay [2], the IC50 worked out at 152 nM.

Take `CC1(C)Cc2ccccc2C1n1cncc1C(=O)NCc1ccccc1` (centres unmarked) [Compound 19, 3-(2,2-Dimethyl-indan-1-yl)-3H-imidazole-4-carboxylic acid benzylamide]: the concentration for half-maximal inhibition (IC50) in assay [2] is 17 nM.

Turning to `CC1(C)Cc2ccccc2C1n1cncc1C(=O)NCCO` (centres unmarked) [Compound 20, 3-(2,2-Dimethyl-indan-1-yl)-3H-imidazole-4-carboxylic acid (2-hydroxy-ethyl)-amide], the 50% inhibitory concentration (IC50) in assay [2] was found to be 6 nM.
